{"source": "patent US11001605B2", "about": "“Cyclic dinucleotides containing benzimidazole, method for the production of same, and use of same to activate stimulator of interferon genes (sting)-dependent signaling pathways” (BIOLOG LIFE SCIENCE INSTITUTE GmbH & Co. KG, priority 2016, dated 2021)", "key": {"[1]": {"assay": "Lipophilicity determination by gradient HPLC (log k′g)", "assay_type": "physicochemical", "conditions": "HPLC gradient 1, RP-18, triethylammonium phosphate buffer pH 6.5 / methanol (ion pair chromatography)", "method": "Gradient 1: Stationary phase: Polygosil 60-10, RP-18; 250×4 mm (Macherey & Nagel, DOren, Germany). Mobile phase A: 10 ml 1 M triethylammonium phosphate buffer (TEAP), pH 6.5+990 ml methanol. Mobile phase B: 10 ml 1 M TEAP, pH 6.5+990 ml H2O. Time program: 0 min: 100% B; 60 min: 100% A; 65 min: 100% A; 70 min: 100% B; 90 min: 100% B. Flow rate: 1.0 ml/min.\nThe octanol/water coefficient Log P is the commonly accepted indicator for the expected property of a given chemical entity to pass cellular membranes by passive diffusion. However, its practical determination for polar compounds such as multiply charged nucleotides is difficult in reality. Often, the information about membrane permeability must be received by fragmental analysis or other calculations.\nGiven this fact, an established HPLC method is used here, which is based on the measurement of retention on a reversed phase column^7. In contrast to Log P, this method yields the indicator log k′g, which allows for a ranking of different nucleotides of the same charge according to their lipophilicity.\nSince CDNs are twofold negatively charged molecules which are only very insufficiently retarded on a reversed phase HPLC column, the determinations were performed in presence of the lipophilic triethylammonium cation (ion pair chromatography).\nAccording to the established method^7 HPLC gradient 1 was used for the determination of lipophilicity."}, "STING signalling pathway": {"test_system": "STING signalling pathway", "assay": "Interferon-β promoter SEAP reporter assay in THP1-Blue cells", "assay_type": "cell-based, human", "conditions": "0, 10, 20, 40 μg/ml, 24 hours", "method": "Legend for Synthesis 4: THP1-Blue™ cells ((THP1-ISG); InvivoGen, catalogue number: thp-isg; concentration: 5×10^5/ml, 180 μl/well (96-well-plate) were incubated with inventive CDNs in different concentrations (0 μg/ml; 10 μg/ml; 20 μg/ml; 40 μg/ml) in medium (RPMI-1640, 2 mM L-glutamine, 1.5 g/I sodium bicarbonate, 4.5 g/I glucose, 10 mM HEPES, 1 mM sodium pyruvate, 10% FCS, 100 μg/ml Zeocin™, 110 μg/ml Normocin™, Pen-Strep 50 U/ml) for 24 hours at 37° C. in 5% CO2. The quantification was performed with SEAP detection reagent QUANTI-Blue™ (InvivoGen; catalogue number: rep-qb1; incubation time: 30 min at 37° C. in 5% CO2) by optical density (OD) determination at 625 nm.\nLegend for Synthesis 5: THP1-Blue™ cells ((THP1-ISG); InvivoGen, catalogue number: thp-isg; concentration: 5×10^5/ml, 180 μl/well (96-well-plate) and THP1 Dual™ KO STING cells ((STING KO) InvivoGen, catalogue number: thpd-kostg; concentration: 5×10^5/ml, 180 μl/well (96-well-plate) were incubated with inventive CDNs (concentration 40 μg/ml each) in medium (RPMI-1640, 2 mM L-glutamine, 1.5 g/I sodium bicarbonate, 4.5 g/I glucose, 10 mM HEPES, 1 mM sodium pyruvate, 10% FCS, 100 μg/mL Zeocin™, 110 μg/mL Normocin™, Pen-Strep 50 U/mL) for 24 hours at 37° C. in 5% CO2. For incubations with THP1 Dual™ KO STING cells, 10 μg/ml of blasticidin were added to the medium. Quantification was performed with SEAP detection reagent QUANTI-Blue™ (InvivoGen; catalogue number: rep-qb1; incubation time: 15 min at 37° C. in 5% CO2) by optical density (OD) determination at 625 nm.\nCell line: THP1-Blue™ cells (InvivoGen, catalogue number: thp-isg) are derived from THP1 cells. THP1-Blue™ cells in a cell culture dish are stimulated by the administration of a CDN according to the invention or a buffer control.\nIn these genetically modified cells, the gene for secreted embryonic alkaline phosphatase (SEAP) is under the control of an interferon-β promoter.\nAfter stimulation of the cells with an inventive CDN, the supernatant of the cell culture was removed and the enzymatic activity of SEAP was measured photometrically in a colorimetric assay by measuring the extinction at 625 nm (optical density; OD 625 nm).\nAdministration of an inventive CDN induces an increase in the activity of SEAP, which is a measure of the activity of the STING signalling pathway."}, "[2]": {"test_system": "STING-induced dimerisation and phosphorylation of IRF3, STING-induced phosphorylation of TBK1", "assay": "STING-induced dimerisation and phosphorylation of IRF3 and phosphorylation of TBK1, Western Blot of THP-1 cell lysate", "assay_type": "cell-based, human", "conditions": "THP-1 cells, native gel and SDS-PAGE Western Blot, versus buffer control", "method": "Cell line: THP-1 cells (Sigma Cat. No. 88081201-1VL) were isolated from peripheral blood of a patient with acute leukaemia.\nAfter application of an inventive CDN or a buffer control to THP1 cells in a culture dish a cell lysate is prepared, of which one part is applied to a native polyacrylamide gel and the other part to two denaturing polyacrylamide gels (SDS-PAGE). The developed gels are analysed with Western Blot technique.\nIn case of the native gel an IRF3 antibody is used.\nThe presence of an inventive CDN results in the formation of a second band, showing a running behaviour, which corresponds to the doubled molecular weight of IRF3. This band represents the dimer of IRF3, that has been formed under the influence of an inventive CDN.\nIn case of the two denaturing gels, either an antibody against phosphorylated IRF3 or an antibody against phosphorylated TBK1 is used. In the buffer control for each of the gels only a very weak band is detected. After application of an inventive CDN, the intensities of these bands are much more pronounced. This increase of intensity reflects the phosphorylation of IRF3 and of TBK1, respectively, induced by the inventive CDNs. Both, the dimerisation of IRF3 and the detected phosphorylations are a direct result of STING activation."}}}
{"smiles": "Nc1nc2c(ncn2[C@@H]2O[C@@H]3COP(=O)(S)OC4C(O)[C@H](n5cnc6ccccc65)O[C@@H]4COP(=O)(S)OC2C3O)c(=O)[nH]1", "note": "(single isomer, unassigned) [Compound 23, MI1, Cyclic (guanosine-(2′→5′)-monophosphorothioate-benzimidazole riboside-(3′→5′)-monophosphorothioate)]", "values": [{"measurement": "log k′g", "setting": "[1]; listed as 23, MI1", "result": 1.509}]}
{"smiles": "Nc1nc2c(ncn2[C@@H]2O[C@@H]3COP(=O)(S)OC4C(O)[C@H](n5cnc6ccccc65)O[C@@H]4COP(=O)(S)OC2C3O)c(=O)[nH]1", "note": "(single isomer, unassigned) [Compound 23, MI2, Cyclic (guanosine-(2′→5′)-monophosphorothioate-benzimidazole riboside-(3′→5′)-monophosphorothioate)]", "values": [{"measurement": "SEAP activity, elevated OD at 625 nm, concentration-dependent", "setting": "STING signalling pathway", "result": "positive"}, {"measurement": "log k′g", "setting": "[1]; listed as 23, MI2", "result": 1.658}]}
{"smiles": "Nc1nc2c(ncn2[C@@H]2O[C@@H]3COP(=O)(S)OC4C(O)[C@H](n5cnc6cc(Cl)c(Cl)cc65)O[C@@H]4COP(=O)(S)OC2C3O)c(=O)[nH]1", "note": "(single isomer, unassigned) [Compound 29, MI1, Cyclic (guanosine-(2′→5′)-monophosphorothioate-5,6-dichlorobenzimidazole riboside-(3′→5′)-monophosphorothioate)]", "values": [{"measurement": "log k′g", "setting": "[1]; listed as 29, MI1", "result": 2.318}]}
{"smiles": "Nc1ncnc2c1ncn2[C@@H]1O[C@@H]2COP(=O)(S)OC3C(O)[C@@H](COP(=O)(S)OC2C1O)O[C@H]3n1cnc2ccccc21", "note": "(single isomer, unassigned) [Compound 98, MI2, Cyclic (adenosine-(3′→5′)-monophosphorothioate-benzimidazole riboside-(2′→5′)-monophosphorothioate)]", "values": [{"measurement": "log k′g", "setting": "[1]; listed as 98, MI2", "result": 1.584}]}
{"smiles": "Nc1nc2c(ncn2[C@@H]2O[C@@H]3COP(=O)(O)O[C@H]4[C@@H](O)[C@H](n5cnc6c(N)ncnc65)O[C@@H]4COP(=O)(O)O[C@@H]2[C@@H]3O)c(=O)[nH]1", "note": "[2′,3′-cGAMP, reference compound]", "values": [{"measurement": "log k′g", "setting": "[1]", "result": 0.766}]}
{"smiles": "O=P1(O)OC[C@H]2O[C@@H](n3cnc4ccccc43)C(O)C2OP(=O)(O)OC[C@H]2O[C@@H](n3cnc4ccccc43)C(O)C2O1", "note": "(stereo partly shown) [Compound 1, cyclic (benzimidazole riboside- (3′ −> 5′)-monophosphate- benzimidazole riboside-(3′ −> 5′)- monophosphate)]", "values": [{"measurement": "log k′g", "setting": "[1]", "result": 1.732}]}
{"smiles": "O=P1(S)OC[C@H]2O[C@@H](n3cnc4ccccc43)C(O)C2OP(=O)(S)OC[C@H]2O[C@@H](n3cnc4ccccc43)C(O)C2O1", "note": "(stereo partly shown) [Compound 4, cyclic (benzimidazole riboside- (3′ −> 5′)-monophosphorothioate- benzimidazole riboside-(3′ −> 5′)- monophosphorothioate)]", "values": [{"measurement": "STING-induced dimerisation of IRF3, phosphorylation of IRF3 and phosphorylation of TBK1", "setting": "[2]", "result": "positive"}]}
{"smiles": "O=P1(O)OC[C@H]2O[C@@H](n3cnc4cc(Cl)c(Cl)cc43)C(O)C2OP(=O)(O)OC[C@H]2O[C@@H](n3cnc4cc(Cl)c(Cl)cc43)C(O)C2O1", "note": "(stereo partly shown) [Compound 7, cyclic (5,6-dichlorobenzimidazole riboside-(3′ −> 5′)-monophosphate-5,6-dichlorobenzimidazole riboside-(3′ −> 5′)-monophosphate)]", "values": [{"measurement": "log k′g", "setting": "[1]", "result": 2.970}]}
{"smiles": "O=P1(S)OC[C@H]2O[C@@H](n3cnc4cc(Cl)c(Cl)cc43)C(O)C2OP(=O)(S)OC[C@H]2O[C@@H](n3cnc4cc(Cl)c(Cl)cc43)C(O1)C2O", "note": "(stereo partly shown) [Compound 11, cyclic (5,6-dichlorobenzimidazole riboside-(2′ −> 5′)-monophosphorothioate-(5,6-dichlorobenzimidazole riboside-(3′ −> 5′)-monophosphorothioate)]", "values": [{"measurement": "STING-induced dimerisation of IRF3, phosphorylation of IRF3 and phosphorylation of TBK1", "setting": "[2]", "result": "positive"}]}
{"smiles": "Nc1nc2c(ncn2[C@@H]2O[C@@H]3COP(=O)(S)OC4C(O)[C@H](n5cnc6cc(Cl)c(Cl)cc65)O[C@@H]4COP(=O)(S)OC2C3O)c(=O)[nH]1", "note": "(stereo partly shown) [Compound 29, cyclic (guanosine-(2′ −> 5′)-monophosphorothioate-5,6-dichlorobenzimidazole riboside-(3′ −> 5′)-monophosphorothioate)]", "values": [{"measurement": "STING-induced dimerisation of IRF3, phosphorylation of IRF3 and phosphorylation of TBK1", "setting": "[2]", "result": "positive"}]}
{"smiles": "Nc1nc2c(ncn2[C@@H]2O[C@@H]3COP(=O)(S)OC4C(O)[C@@H](COP(=O)(S)OC2C3O)O[C@H]4n2cnc3cc(Cl)c(Cl)cc32)c(=O)[nH]1", "note": "(stereo partly shown) [Compound 30, cyclic (guanosine-(2′ −> 5′)-monophosphorothioate-5,6-dichlorobenzimidazole riboside-(2′ −> 5′)-monophosphorothioate)]", "values": [{"measurement": "STING-induced dimerisation of IRF3, phosphorylation of IRF3 and phosphorylation of TBK1", "setting": "[2]", "result": "positive"}]}
{"smiles": "Nc1ncnc2c1ncn2[C@@H]1O[C@@H]2COP(=O)(O)OC3C(O)[C@H](n4cnc5cc(Cl)c(Cl)cc54)O[C@@H]3COP(=O)(O)OC2C1F", "note": "(stereo partly shown) [Compound 81, cyclic (2′-fluoro-2′-deoxyadenosine-(3′ −> 5′)-monophosphate-5,6-dichlorobenzimidazole riboside-(3′ −> 5′)-monophosphate)]", "values": [{"measurement": "SEAP activity, elevated OD at 625 nm, concentration-dependent", "setting": "STING signalling pathway", "result": "positive"}, {"measurement": "log k′g", "setting": "[1]", "result": 2.039}]}
{"smiles": "O=c1[nH]cnc2c1ncn2[C@@H]1O[C@@H]2COP(=O)(O)OC3C(O)[C@H](n4cnc5ccccc54)O[C@@H]3COP(=O)(O)OC2C1F", "note": "(stereo partly shown) [Compound 85, cyclic (2′-fluoro-2′-deoxyinosine-(3′ −> 5′)-monophosphate-benzimidazole riboside-(3′ −> 5′)-monophosphate)]", "values": [{"measurement": "log k′g", "setting": "[1]", "result": 1.211}]}
{"smiles": "Nc1nc2c(ncn2[C@@H]2O[C@@H]3COP(=O)(O)O[C@H]4[C@@H](O)[C@H](n5cnc6c(=O)[nH]c(N)nc65)O[C@@H]4COP(=O)(O)O[C@H]3[C@H]2O)c(=O)[nH]1", "note": "[c-diGMP, reference compound]", "values": [{"measurement": "log k′g", "setting": "[1]", "result": 0.840}]}
